From US8222242B2, “Nitric oxide releasing compounds” (The Regents of the University of California, priority 2008, dated 2012)

How the values were obtained:
[1] = tested on: rabbits; assay: Tissue hemoglobin and cytochrome c oxidase in rabbit muscle and brain (DOS, continuous wave near-infrared spectroscopy); assay type: in vivo
Protocol: NO-Cbi at a dose of 5 μg/kg/min (4.8 nmol/kg/min) was given to a 4 kg rabbit starting at 2 minutes and ending at 11.5 minutes; the drug's effect was monitored by diffuse optical spectroscopy (DOS) over the left thigh muscle. […] All of these changes reversed within 1 minute of stopping the NO-Cbi with a small overshoot in both the oxy- and deoxyhemoglobin concentrations.
NO-Cbi was given to a 3.9 kg rabbit at doses of 6.87, 3.44, and 1.72 μg/kg/min (6.6, 3.3, 1.7 nmol/kg/min), as indicated in the brown rectangular boxes corresponding to drug infusion rates of 1.8, 0.9, and 0.45 ml/min, respectively. Infusion times were for 10 minutes, followed by a 20 minute wash-out period. Oxy-, deoxy- and total hemoglobin concentrations were monitored in the brain by continuous wave near-infrared spectroscopy; changes in hemoglobin concentration are shown as relative units, because continuous wave spectroscopy is not quantitative due to light loss from scattering. As occurred in peripheral muscle (FIG. 7), NO-Cbi caused the deoxyhemoglobin concentration to increase and the oxyhemoglobin concentration to decrease. […] The gradual decrease in total hemoglobin over time was from blood sampling for blood gases and blood hemoglobin content. A dose response effect of NO-Cbi on all three hemoglobin concentration changes can be seen.
Continuous intravenous NO-Cbi infusions were performed in anesthetized rabbits with systemic hemodynamic monitoring, continuous gas exchange analysis, and diffuse optical spectroscopy (DOS) and continuous wave near-infrared spectroscopy monitoring. DOS monitoring was over muscle as a representation of peripheral tissue, and continuous wave spectroscopy was over muscle and brain region. Six animals have been studied to date, varying NO-Cbi infusion rates in each animal between 1.7 and 6.9 μg/kg/min (1.6 and 6.7 nmol/kg/min).

[2] = tested on: New Zealand white rabbit; assay: Oral (nasogastric) NO-Cbi and rabbit blood pressure; assay type: in vivo
Protocol: An anesthetized New Zealand white rabbit was given NO-Cbi via a nasogastric tube at 10 and 100 (0.32 and 3.2 mg/kg) (FIG. 10a) or 10 and 50 (0.32 and 1.6 mg/kg) (FIG. 10b) times the dose used intravenously. Blood pressure was monitored continuously by an intra-arterial catheter, and was recorded every 5 minutes. The blood pressure was allowed to stabilize for 10 minutes prior to administering NO-Cbi.

[3] = tested on: mice; assay type: in vivo, mouse
Protocol: Mice were anesthetized with 1.5% isoflurane gas, and after achieving a stable blood pressure and pulse (about 10 minutes), they were injected intraperitoneally with 100 μl of […] 8 mM Cbi(II) (open circles, solid line), 8 mM NO-Cbi (filled circles, dashed line), or 8 mM nitroglycerin (squares, dotted lines) (panels a and b). Control refers to anesthetized mice who received 100 μl water (triangles, solid line). In panel C, 100 μl of 6 mM NO-Cbi was injected at 0, 32, and 64 minutes as indicated by the arrows. Systolic and diastolic blood pressures, and pulse rate, were measured at the indicated times on the tail artery using a non-invasive tail cuff. The percent change in mean arterial pressure (A and C), and pulse rate (B and C) are shown. For panels A and B, data are the mean±SD of results from five mice for NO-Cbi studied on separate days, and four mice for the other conditions. […] Data in panel C are the mean±SD of results from three mice studied on different days.
Pulse, and systolic and diastolic blood pressures, were measured non-invasively in the tail artery of mice by restraining mice on a warming platform maintained at ˜38° C. The base of the tail was placed in a computer-controlled pneumatic cuff, and the distal tail was placed in a sensor assembly consisting of a light emitting diode and a photodiode detector. Baseline measurements were made with the mice awake in a dark chamber. The mice were then anesthetized with 3% isoflurane in an induction chamber, and returned to the platform where they received 1.5% isoflurane with 2 liter per minute of oxygen via a nose cone; the isoflurane caused a small, but stable, drop in blood pressure. Drugs in a volume of 100 ul were injected intraperitoneally into the mice, and pulse and blood pressure were measured every 5-15 minute, taking five readings at each time point.
To determine the effect of NO release from NO-Cbi in an intact mammal, blood pressure and pulse of mice injected intraperitoneally with NO-Cbi were measured.

[4] = tested on: Malpighian tubules isolated from D. melanogaster; assay: Malpighian tubule fluid secretion; design: species or system Drosophila melanogaster
Protocol: Malpighian tubules are the osmoregulatory organs of D. melanogaster, corresponding to vertebrate kidneys. Tubular fluid secretion is stimulated by NO and cGMP, and fluid secretion rates were measured as described previously (Broderick K E et al. (2005) J. Biol. Chem. 280:8678-85). Briefly, the Malpighian tubule pair of a fly was resected and suspended in mineral oil. […]
Malpighian tubules are an excellent model for studying the effects of a drug on an intact organ system (Broderick K E et al. (2003) Am. J. Physiol. Cell Physiol. 285:C1207-18). […] Deta-NONOate may not be affected as much by cysteine in the medium, because it has a slower NO release rate and the intact drug can be transported intracellularly before much NO is released.

**Q.** Which results are given for CC1=C2[N+]3=C(C=C4[N+]5=C(C(C)=C6[N]7C(C(CC(N)=O)C6(C)CCC(=O)NCC(C)O)C6(C)[N+](=C1C(CCC(N)=O)C6(C)CC(N)=O)[Co-3]753[N]=O)C(CCC(N)=O)C4(C)C)C(CCC(N)=O)C2(C)CC(N)=O (centres unmarked) [NO-Cbi, nitrosyl cobinamide]?
**A.** time for changes to reverse after stopping NO-Cbi ([1]; 5 μg/kg/min, thigh muscle, DOS): ≤ 1 min; total tissue hemoglobin ([1]; brain): increased slightly in brain; deoxyhemoglobin concentrations ([1]; brain and muscle): increased deoxyhemoglobin concentrations; hemoglobin oxygen saturation ([1]; brain and muscle): decrease in hemoglobin oxygen saturation; tissue oxyhemoglobin concentrations ([1]; brain and muscle): decreased tissue oxyhemoglobin concentrations; cytochrome redox state ([1]; muscle): decreasing the cytochrome redox state; total tissue hemoglobin ([1]; muscle): decreased slightly in muscle; blood pressure on the higher dose ([2]; 3.2 or 1.6 mg/kg via nasogastric tube): steeper decrease; time until blood pressure began to decrease ([2]; low dose (0.32 mg/kg) via nasogastric tube): ≤ 10 min; blood pressure after 100 or 180 minutes ([2]; via nasogastric tube): remained lower than baseline; duration of effect after each dose ([2]; via nasogastric tube): at least 40 minutes; systolic and diastolic blood pressure ([3]; 0.8 μmol (100 μl of 8 mM) intraperitoneally, anesthetized mice): rapidly reduced; increase of pulse rate compared with nitroglycerin ([3]; 0.8 μmol intraperitoneally): more pronounced than that observed with nitroglycerin; time required for blood pressure to return to control values ([3]; 0.8 μmol intraperitoneally): ~45 min; blood pressure reduction compared with nitroglycerin ([3]; equimolar amounts, intraperitoneally): reduced blood pressure more potently than an equimolar amount of nitroglycerin; half-life of NO-Cbi in the mice ([3]; mouse, in vivo): 30 to 60 min; pulse rate above control values ([3]; until 75 minutes): more than 10%; rate of tubular secretion relative to cobinamide-treated tubules ([4]; 1 mM, 70 minute time point (50 minutes after adding drugs), half-strength Schneider's medium): 1.6 times; fluid secretion ([4]; 1 mM, half-strength Schneider's medium): stimulated fluid secretion to a similar extent as 100 μM 8-CPT-cGMP, but somewhat less than 500 μM Deta-NONOate; fluid secretion ([4]; full strength of Schneider's medium): no effect
